Laboratory results reported in patent US20070203239A1, “Compounds For The Treatment Of An Acute Injury To The Central Nervous System” (Neurotec Pharma, S.L., priority 2004, published 2007).

Legend:
[1] = tested on: AMPA induced rat hippocampal excitotoxic damage; assay: Hippocampal CA1 lesion area (cresyl violet) after stereotaxic intrahippocampal microinjection, AMPA excitotoxicity model; assay type: in vivo; conditions: for area of hippocampal CA1 pyramidal layer lesion: rat dorsal hippocampus, two injections 2 h apart (5.4 mM AMPA and/or 20 μM glibenclamide), 24 hours after lesion, mean ± SEM
Experimental: (§1) In this neurodegenerative model, rats were anaesthetized with equithesin (a mixture of chloral hydrate and sodium pentobarbitone; 0.3 ml/100 g body wt, i.p.), and placed on a Kopf stereotaxic frame with the incisor bar set at −3.3 mm. Intracerebral injections aimed at the dorsal hippocampus were performed at 3.3 mm caudal to bregma, 2.2 mm lateral, and 2.9 mm ventral from dura (cf. G. Paxinos et al., “The rat brain in stereotaxic coordinates”, Sydney: Academic Press 1986). A volume of 0.5 μl was injected over a period of 5 min.
(§2) Four different groups of rats received two injections in a 2-hour interval as follows: a) sham rats (n=4) received two injections of PBS; b) AMPA rats (n=4) received the first injection of 5.4 mM AMPA and the second of PBS; c) glibenclamide rats (n=4) received two injections of 20 μM glibenclamide; d) AMPA+glibenclamide rats (n=4) received 5.4 mM AMPA+20 μM glibenclamide in the first injection and 20 μM glibenclamide in the second injection. All rats were sacrified 24 hours after the lesion.
(§3) Rats were transcardially perfused with 300 ml of 0.1 M phosphate buffer (PB, pH 7.4) followed by 300 ml ice-cold fixative (flow rate 20 ml/min). The fixative consisted of 4% (w/v) paraformaldehyde in PB. Brains were removed, crioprotected with 15% (w/v) sucrose in PB and then, frozen with dry ice.
Cryostat sections (12 μm) were obtained at the level of dorsal hippocampus (−3.3 mm to bregma). Isolectine B4 (IB4) histochemistry was performed to identify the microglial reaction (cf. C. A. Colton et al., J. Histochem. Cytochem. 1992, vol. 40, pp. 505-12). The hippocampal morphology was studied in Cresyl violet stained sections. […] These parameters were analyzed using a computer-assisted image analysis system (OPTIMAS®, BioScan Inc., Washington, USA). IB4-stained reactive microcytes were counted at ×100 magnification using an ocular grid mounted on a transmission light microscope (Axiolab, Zeiss, Göttingen, Germany). […] Results are expressed as mean ± SEM.

[2] = tested on: hippocampal microglial reaction; assay: Microglial reaction (IB4 histochemistry) after stereotaxic intrahippocampal microinjection, AMPA excitotoxicity model; assay type: in vivo, rat; conditions: for density of reactive microcytes (IB4-stained) / hippocampal microgliosis area: rat dorsal hippocampus, 24 hours after lesion, mean ± SEM, n=4; for hippocampal microgliosis area: two 0.5 μl injections 2 h apart (5.4 mM AMPA and/or 20 μM glibenclamide)
Experimental: as §1, §2, §3
Cryostat sections (12 μm) were obtained at the level of dorsal hippocampus (−3.3 mm to bregma). Isolectine B4 (IB4) histochemistry was performed to identify the microglial reaction (cf. C. A. Colton et al., J. Histochem. Cytochem. 1992, vol. 40, pp. 505-12). The hippocampal morphology was studied in Cresyl violet stained sections. The area of lesion and the microgliosis evaluation were performed on cresyl violet and IB4-positive stained sections respectively. These parameters were analyzed using a computer-assisted image analysis system (OPTIMAS®, BioScan Inc., Washington, USA). IB4-stained reactive microcytes were counted at ×100 magnification using an ocular grid mounted on a transmission light microscope (Axiolab, Zeiss, Göttingen, Germany). One-way ANOVA was used to compare differences between groups, followed by the LSD post-hoc test. Results are expressed as mean ± SEM.

[3] = rat AMPA hippocampal excitotoxicity model, 20 μM glibenclamide

## Cc1onc(O)c1CC(N)C(=O)O (stereo not drawn) [AMPA, α-amino-3-hydroxy-5-methylisoxazole-4-propionic]
[1]
  area of hippocampal CA1 pyramidal layer lesion: 0.130±0.015 mm^2
[2]
  density of reactive microcytes (IB4-stained): 645±59 cells/mm^2
  hippocampal microgliosis area: 0.44±0.07 mm^2

## COc1ccc(Cl)cc1C(=O)NCCc1ccc(S(=O)(=O)NC(=O)NC2CCCCC2)cc1 [glibenclamide]
[1]; [3]
  effect on hippocampal lesion (in words): avoids hippocampal excitotoxic damage
[1]
  area of hippocampal CA1 pyramidal layer lesion: 0.012±0.0017 mm^2
[2]; [3]
  effect on microglial activation (in words): potentiates microglial activation
[2]
  density of reactive microcytes (IB4-stained): 614±91 cells/mm^2
  hippocampal microgliosis area: 0.16±0.03 mm^2
